These results are taken from the Kinase Knowledgebase extract (Sharma et al. 2016).

Structures are written as SMILES. pIC50: −log10 of the molar value.

This experiment has as its target MAPK14 (UniProt Q16539). In words: Inhibition of MAPK14 Kinase Activity.

Chain of MAPK14 (Q16539 whole entry, looked up): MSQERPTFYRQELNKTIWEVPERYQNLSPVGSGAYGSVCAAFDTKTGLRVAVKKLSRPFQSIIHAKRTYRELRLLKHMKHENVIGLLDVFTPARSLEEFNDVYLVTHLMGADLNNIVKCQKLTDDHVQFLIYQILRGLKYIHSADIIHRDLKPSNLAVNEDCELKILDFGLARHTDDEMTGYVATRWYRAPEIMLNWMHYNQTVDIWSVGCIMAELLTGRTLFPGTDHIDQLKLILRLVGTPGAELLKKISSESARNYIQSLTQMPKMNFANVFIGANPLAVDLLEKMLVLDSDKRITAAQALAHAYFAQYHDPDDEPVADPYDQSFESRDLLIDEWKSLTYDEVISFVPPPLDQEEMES

Regarding `CN(C)S(=O)(=O)n1c(N)nc2ccc(-c3nc(-c4c(F)cccc4F)[nH]c3-c3ccccc3)cc21`, the pIC50 (as a rule, the IC50 on a negative log10 scale, so that one unit is a factor of ten) was not below 5.30. Under `CC(C)S(=O)(=O)n1c(N)nc2ccc(-c3[nH]n(-c4ccccc4)c(=O)c3-c3ccc(F)cc3)cc21` stands not below 5.30.

In turn, `CC(C)S(=O)(=O)n1c(N)nc2ccc(-c3nc(C(C)(C)C)[nH]c3-c3ccccc3)cc21` had a pIC50 not below 5.30. Compound `CC(C)S(=O)(=O)n1c(N)nc2ccc(-c3nc(-c4ccc(Cl)cc4)[nH]c3-c3ccccc3)cc21` gave a negative-log IC50 (pIC50) not below 5.30. Under `CC(C)S(=O)(=O)n1c(N)nc2ccc(-c3nc(C4CCN(Cc5ccccc5)CC4)[nH]c3-c3ccccc3)cc21` stands not below 5.30; under `CC(C)S(=O)(=O)n1c(N)nc2ccc(-c3nc(-c4cccc(Cl)c4)[nH]c3-c3ccccc3)cc21`, not below 5.30.

For `C#Cc1nc(-c2ccccc2)c(-c2ccc3nc(N)n(S(=O)(=O)C(C)C)c3c2)n1C1CCCCC1`, the pIC50 is not below 5.30.

`CC(C)S(=O)(=O)n1c(N)nc2ccc(-c3nc(-c4ccc(OCCN(C)C)cc4)[nH]c3-c3ccccc3)cc21` showed a pIC50 not below 5.30. Take `CC(C)S(=O)(=O)n1c(N)nc2ccc(-c3nc(CN(C)CCN(C)C)[nH]c3-c3ccccc3)cc21`: the pIC50 is not below 5.30. In turn, `CC(C)S(=O)(=O)n1c(N)nc2ccc(-c3c(-c4ccc(F)cc4)ncn3C3CCCC3)cc21` showed a pIC50 not below 5.30. Under `CC(C)S(=O)(=O)n1c(N)nc2ccc(-c3c(-c4ccc(F)cc4F)ncn3C)cc21` stands not below 5.30; under `CC(C)S(=O)(=O)n1c(N)nc2ccc(-c3c(-c4ccccc4)ncn3C3CCC4(CC3)OCCO4)cc21`, not below 5.30; under `CC(C)S(=O)(=O)n1c(N)nc2ccc(-c3c(-c4ccccc4)ncn3Cc3cccc(F)c3)cc21`, not below 5.30. Under `CCNc1ccc(-c2nc(-c3ccc4nc(N)n(S(=O)(=O)C(C)C)c4c3)c(-c3ccccc3)[nH]2)cc1` stands not below 5.30; under `CC(C)S(=O)(=O)n1c(N)nc2ccc(-c3c(-c4ccccc4)ncn3[C@@H](C)CO)cc21`, not below 5.30; under `Nc1nc2ccc(-c3nc[nH]c3-c3ccccc3)cc2s1`, not below 5.30.

Turning to `CC(C)S(=O)(=O)n1c(N)nc2ccc(-c3c(-c4ccccc4)ncn3[C@@H](CO)c3ccccc3)cc21`, the pIC50 was not below 5.30. Under `CC(C)S(=O)(=O)n1c(N)nc2ccc(-c3c(-c4cccc(F)c4)ncn3Cc3cccnc3)cc21` stands not below 5.30.

Consider `CC(C)S(=O)(=O)n1c(N)nc2ccc(-c3nc(C4CCOCC4)[nH]c3-c3ccccc3)cc21`, for which the pIC50 is not below 5.30. Under `COc1ccc(Cn2cnc(-c3ccccc3)c2-c2ccc3nc(N)n(S(=O)(=O)C(C)C)c3c2)cc1` stands not below 5.30.

Compound `Cc1ccccc1-c1[nH]c(-c2ccc(F)cc2)nc1-c1ccc2nc(N)n(S(=O)(=O)C(C)C)c2c1` showed a pIC50 not below 5.30. As for `CC(C)S(=O)(=O)n1c(N)nc2ccc(-c3c(-c4ccccc4F)ncn3[C@H]3CC[C@H](O)CC3)cc21`, the pIC50 is not below 5.30. Under `CC(C)S(=O)(=O)n1c(N)nc2ccc(-c3c(-c4ccccc4)ncn3[C@H](C)CO)cc21` stands not below 5.30; under `CC(C)S(=O)(=O)n1c(N)nc2ccc(-c3nc[nH]c3-c3cccc(F)c3F)cc21`, not below 5.30.

Regarding `CCc1ccc(-c2nc(-c3ccc4nc(N)n(S(=O)(=O)C(C)C)c4c3)c(-c3ccc(F)cc3)[nH]2)s1`, the pIC50 was not below 5.30.

The compound `CC(C)S(=O)(=O)n1c(N)nc2ccc(-c3c(-c4ccccc4)ncn3C3CCN(C(=O)OC(C)(C)C)CC3)cc21` showed a pIC50 not below 5.30. In turn, `CC(C)S(=O)(=O)n1c(N)nc2ccc(-c3nc(-c4c(F)cccc4F)[nH]c3-c3ccc(F)cc3)cc21` gave a pIC50 not below 5.30. Under `Cc1ccc(-c2nc(-c3ccc4nc(N)n(S(=O)(=O)C(C)C)c4c3)c(-c3ccccc3)[nH]2)cc1` stands not below 5.30.

In turn, `CC(C)S(=O)(=O)n1c(N)nc2ccc(-c3nc(-c4ccc(F)cc4F)[nH]c3-c3ccccc3)cc21` gave a pIC50 not below 5.30. Compound `Cc1nc(-c2ccc3nc(N)n(S(=O)(=O)C(C)C)c3c2)c(-c2ccccc2)[nH]1` gave a pIC50 not below 5.30. The compound `CC(C)S(=O)(=O)n1c(N)nc2ccc(-c3c(-c4ccccc4)ncn3CCO)cc21` showed a pIC50 not below 5.30. Under `CC(=O)Nc1ccc(-c2nc(-c3ccc4nc(N)n(S(=O)(=O)C(C)C)c4c3)c(-c3ccccc3)[nH]2)cc1` stands not below 5.30; under `CC(C)S(=O)(=O)n1c(N)nc2ccc(-c3nc(-c4cccs4)[nH]c3-c3ccc(C(F)(F)F)cc3)cc21`, not below 5.30; under `CC(C)S(=O)(=O)n1c(N)nc2ccc(-c3cc(C(C)(C)C)nn3-c3ccccc3)cc21`, not below 5.30. Under `CC(C)S(=O)(=O)n1c(N)nc2ccc(-c3nc(-c4c(F)cccc4C(F)(F)F)[nH]c3-c3ccccc3)cc21` stands not below 5.30; under `CC(C)S(=O)(=O)n1c(N)nc2ccc(-c3c(-c4ccccc4)ncn3Cc3ccc(F)cc3)cc21`, not below 5.30; under `CC(C)S(=O)(=O)n1c(N)nc2ccc(-c3nc(-c4ccc([N+](=O)[O-])cc4F)[nH]c3-c3ccccc3)cc21`, not below 5.30. Under `CC(C)S(=O)(=O)n1c(N)nc2ccc(-c3nc(C4CCNCC4)[nH]c3-c3ccccc3)cc21` stands not below 5.30.

The compound `CC(C)S(=O)(=O)n1c(N)nc2ccc(-c3nc(-c4c(F)cccc4F)oc3-c3ccccc3)cc21` showed a pIC50 not below 5.30. Under `CC(C)S(=O)(=O)n1c(N)nc2ccc(-c3c(-c4ccccc4F)ncn3Cc3cccnc3)cc21` stands not below 5.30. Under `CC(C)S(=O)(=O)n1c(N)nc2ccc(-c3nc(-c4ccc(F)cc4F)[nH]c3-c3cc(F)cc(F)c3)cc21` stands not below 5.30; under `CC(C)S(=O)(=O)n1c(N)nc2ccc(-c3c(-c4ccccc4)ncn3C3CCNCC3)cc21`, not below 5.30; under `CC(C)S(=O)(=O)n1c(N)nc2ccc(-c3c(-c4ccccc4F)nc(C#C[Si](C)(C)C)n3C3CC3)cc21`, not below 5.30. Under `CC(C)S(=O)(=O)n1c(N)nc2ccc(-c3c(-c4ccccc4)nc4n3CCCC4)cc21` stands not below 5.30; under `CC(C)S(=O)(=O)n1c(N)nc2ccc(-c3nc(C4CCN(Cc5nccn5C)CC4)[nH]c3-c3ccccc3)cc21`, not below 5.30. Regarding `CC(C)S(=O)(=O)n1c(N)nc2ccc(-c3nc(-c4c(F)cccc4Cl)[nH]c3-c3ccc(F)cc3)cc21`, the pIC50 is not below 5.30. Under `CC(C)S(=O)(=O)n1c(N)nc2ccc(-c3nc[nH]c3-c3ccc(F)cc3)cc21` stands not below 5.30; under `CC(C)S(=O)(=O)n1c(N)nc2ccc(-c3c(-c4ccc(F)cc4)ncn3C3CC3)cc21`, not below 5.30; under `CC(C)c1nc(-c2ccc3nc(N)n(S(=O)(=O)C(C)C)c3c2)c(-c2ccc(F)cc2)[nH]1`, not below 5.30. Under `CC(C)S(=O)(=O)n1c(N)nc2ccc(-c3c(-c4ccc(F)cc4)ncn3C3CCN(C)CC3)cc21` stands not below 5.30; under `CC(C)S(=O)(=O)n1c(N)nc2ccc(-c3nc(-c4c(Cl)cccc4Cl)[nH]c3-c3ccccc3)cc21`, not below 5.30. `CC(C)S(=O)(=O)n1c(N)nc2ccc(-c3c(-c4ccc(F)cc4)nc4n3CCC4)cc21` gave a pIC50 not below 5.30. The compound `CC(C)S(=O)(=O)n1c(N)nc2ccc(-c3c(-c4ccccc4F)ncn3C3CC3)cc21` gave a pIC50 not below 5.30. Turning to `CC(C)S(=O)(=O)n1c(N)nc2ccc(-c3nc(CC(C)(C)C)[nH]c3-c3ccc(F)cc3)cc21`, the pIC50 is not below 5.30. Under `CC(C)S(=O)(=O)n1c(N)nc2ccc(-c3c(-c4ccccc4)ncn3C)cc21` stands not below 5.30; under `CC(C)S(=O)(=O)n1c(N)nc2ccc(-c3nc(-c4cc(F)cc(F)c4)[nH]c3-c3ccccc3)cc21`, not below 5.30; under `CC(C)S(=O)(=O)n1c(N)nc2ccc(-c3nc(-c4ccccc4Cl)[nH]c3-c3ccccc3)cc21`, not below 5.30. The compound `CC(C)S(=O)(=O)n1c(N)nc2ccc(-c3nc(-c4cccnc4)[nH]c3-c3ccccc3)cc21` had a pIC50 not below 5.30. `Cc1ccc(-c2[nH]c(-c3ccc(F)cc3)nc2-c2ccc3nc(N)n(S(=O)(=O)C(C)C)c3c2)cc1` gave a pIC50 not below 5.30. Consider `CC(C)S(=O)(=O)n1c(N)nc2ccc(-c3nc(-c4cccs4)[nH]c3-c3ccc(F)cc3)cc21`, for which the pIC50 was not below 5.30. `CC(C)S(=O)(=O)n1c(N)nc2ccc(-c3nc[nH]c3-c3cccc(C(F)(F)F)c3)cc21` gave a pIC50 not below 5.30. Under `CC(C)S(=O)(=O)n1c(N)nc2ccc(-c3nc(-c4ncc[nH]4)[nH]c3-c3ccccc3)cc21` stands not below 5.30. Under `CC(C)S(=O)(=O)n1c(N)nc2ccc(C3C(c4ccccc4)N=C4C=CC(Cl)=CN43)cc21` (stereo unspecified) stands not below 5.30; under `CC(C)S(=O)(=O)n1c(N)nc2ccc(-c3c(-c4ccccc4)nc(-c4c(F)cccc4F)n3C)cc21`, not below 5.30; under `CC(C)S(=O)(=O)n1c(N)nc2ccc(-c3nc(C4CCN(CCO)CC4)[nH]c3-c3ccccc3)cc21`, not below 5.30.

`CC(C)S(=O)(=O)n1c(N)nc2ccc(-c3nc(-c4ccc(N)cc4F)[nH]c3-c3ccccc3)cc21` showed a pIC50 not below 5.30. Under `CC(C)S(=O)(=O)n1c(N)nc2ccc(-c3c(-c4ccccc4F)nc(Br)n3C3CC3)cc21` stands not below 5.30; under `CC(C)S(=O)(=O)n1c(N)nc2ccc(-c3nc(C4CCCCC4)[nH]c3-c3ccccc3)cc21`, not below 5.30; under `CC(C)S(=O)(=O)n1c(N)nc2ccc(-c3c(-c4ccccc4)ncn3C3CCN(Cc4ccccc4)CC3)cc21`, not below 5.30. Under `CC(C)S(=O)(=O)n1c(N)nc2ccc(-c3nc(-c4c(F)cccc4Cl)[nH]c3-c3ccccc3)cc21` stands not below 5.30; under `CC(C)S(=O)(=O)n1c(N)nc2ccc(-c3[nH]n(-c4ccccc4)c(=O)c3-c3ccccc3)cc21`, not below 5.30. Under `CCc1nc(-c2ccc3nc(N)n(S(=O)(=O)C(C)C)c3c2)c(-c2ccc(F)cc2)[nH]1` stands not below 5.30; under `CC(C)S(=O)(=O)n1c(N)nc2ccc(-c3nc(CNCCN(C)C)[nH]c3-c3ccccc3)cc21`, not below 5.30. `CC(C)S(=O)(=O)n1c(N)nc2ccc(-c3c(-c4ccccc4)ncn3C3CCC(N)CC3)cc21` (stereo unspecified) gave a negative-log IC50 (pIC50) not below 5.30. Under `CC(C)n1cnc(-c2ccccc2)c1-c1ccc2nc(N)n(S(=O)(=O)C(C)C)c2c1` stands not below 5.30. `CC(C)S(=O)(=O)n1c(N)nc2ccc(-c3nc(C4CCNCC4)[nH]c3-c3ccc(F)cc3)cc21` showed a pIC50 not below 5.30.
